# Results published in PubChem BioAssay (NCI).
#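 Where inhibition never reached the appropriate level, the endpoint shown equals the highest concentration tested. Otherwise, values were interpolated linearly from a five-concentration, 48-hour dose response in 96-well plates. Here, GI50 denotes the concentration required for 50% inhibition of growth. TGI marks complete inhibition of growth.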
# Columns and labels:
# Assay in all cases: DTP human tumour cell line panel, 48 h
# OVCAR-4 ovarian = test system: OVCAR-4 ovarian
# SW-620 colon = test system: SW-620 colon
# HS 578T breast = test system: HS 578T breast
# HOP-62 NSCLC = test system: HOP-62 NSCLC
# MALME-3M melanoma = test system: MALME-3M melanoma
# NCI-H522 lung = test system: NCI-H522 lung
# CCRF-CEM leukemia = test system: CCRF-CEM leukemia
# NCI-H460 lung = test system: NCI-H460 lung
# K-562 leukemia = test system: K-562 leukemia
# RXF 393 renal = test system: RXF 393 renal
SMILES,GI50 (OVCAR-4 ovarian) [µM],TGI (OVCAR-4 ovarian) [µM],GI50 (SW-620 colon) [nM],TGI (SW-620 colon) [µM],GI50 (HS 578T breast) [nM],TGI (HS 578T breast) [µM],GI50 (HOP-62 NSCLC) [µM],TGI (HOP-62 NSCLC) [µM],GI50 (MALME-3M melanoma) [µM],TGI (MALME-3M melanoma) [µM],GI50 (NCI-H522 lung) [nM],TGI (NCI-H522 lung) [µM],GI50 (CCRF-CEM leukemia) [nM],TGI (CCRF-CEM leukemia) [µM],GI50 (NCI-H460 lung) [nM],TGI (NCI-H460 lung) [µM],GI50 (K-562 leukemia) [nM],TGI (K-562 leukemia) [µM],GI50 (RXF 393 renal) [nM],TGI (RXF 393 renal) [µM]
C[C@@H]1CN(Cc2ccc(/C=C/c3n[nH]c4ccc5nc(-c6cn[nH]c6C(F)(F)F)c6c(c5c34)CCCC6)cc2)C[C@H](C)O1,5.03,24.9,2020,10.1,2050,10.8,4.6,30.8,4.96,20.9,2020,16.2,718,34.2,1350,10.2,2810,24.7,1850,5.79
CC(=O)OCCC/C(=C\c1ccc2ccccc2c1)[N+](=O)[O-],1.76,3.39,1440,3.27,1090,5.19,2,4.09,1.91,4.9,353,1.77,2190,7.88,2910,8.62,2010,> 100,1940,4.1
CC(C)(C)c1ccc(C(=O)N/N=C/c2ccc(O)cc2O)cc1,0.238,14.9,620,13.1,2420,27.3,0.418,11.1,0.478,5.19,1200,14,260,> 36.9,320,1.88,476,20.1,1610,12.2
COc1cc(Nc2ncc3c(n2)-c2ccc(Cl)cc2C(c2c(F)cccc2OC)=NC3)ccc1C(=O)O,3.7,> 86.2,1740,> 100,3300,> 71.3,5.08,58.5,16.9,> 89.1,501,3.88,579,> 65.9,41.2,> 83.6,5240,> 100,1590,13.1
c1ccc(-c2n(Cc3ccc4ccccc4n3)c3ccccc3[n+]2Cc2ccc3ccccc3n2)cc1,0.238,1.82,359,1.69,391,2.28,0.446,1.95,0.336,1.65,356,1.69,365,2.81,367,1.36,141,1.34,304,1.54
Cc1ccc(C(=O)Nc2ccc(CN3CCN(C)CC3)c(C(F)(F)F)c2)cc1C#Cc1cncc2ncccc12,0.289,4.75,443,1.76,232,1.08,0.474,6.07,0.113,0.951,323,15.6,902,3.61,428,5.02,–,1.67,290,1.05
COC(=O)c1[nH]nc(-c2ccccc2)c1N1CCCCC1,86.7,> 100,75600,> 100,22400,64.7,22,57,39.3,> 100,36800,> 100,72900,> 100,38100,> 100,57200,> 100,20700,54.5
Clc1ccccc1-c1nc2ccccc2[nH]1,> 100,> 100,> 100000,> 100,> 100000,> 100,> 100,> 100,> 100,> 100,> 100000,> 100,> 100000,> 100,> 100000,> 100,80200,> 100,> 100000,> 100
COc1cc(C(=O)/C=C/c2c(-c3ccc(F)cc3)nc3sccn23)cc(OC)c1OC,3.27,38.1,2920,11.2,2050,6.44,1.96,5.73,3.96,> 33.9,4200,> 26.2,2680,> 27.3,1950,4.51,1850,6.64,945,4.23
O=C(Cc1ccc(/C=C/C(=O)c2ncc[nH]2)cc1)Nc1ccc(Br)cc1,3.42,> 16.7,873,4.49,7940,> 16.7,2.49,5.73,3.12,7.69,2760,7.34,759,> 16.7,2770,8.66,745,> 16.7,2400,4.82
COc1cc(C2c3cc4c(cc3C3OC(=O)C2C3CO)OCO4)cc(OC)c1OC (configuration not stated),0.0446,> 100,24.4,> 100,43,> 100,0.0339,> 100,0.0262,> 100,< 10,0.0351,27.1,> 100,29.9,> 100,20.5,> 100,< 16.2,–
COc1ccc(C(=O)Nc2ncc(Cc3ccc(F)cc3)s2)cc1,1.38,> 100,44.9,> 100,52,34.6,0.148,> 56.5,0.0855,> 62.8,87.4,> 100,44.6,> 100,40.8,> 32.6,37.7,> 100,66.6,3.18
CC(=O)OC1CCC2(C)C(CCC3C2CCC2(C)C(C4=CC(=O)OC4)CCC32)C1 (configuration not stated),12.1,95.1,32000,> 100,4680,32.1,14.5,38.3,4.23,23.1,1530,3.99,1450,4.62,681,11,2020,5.27,8730,28.7
Cc1cc(-c2ccccc2)c(C)n1Cc1ccc(Cl)cc1,9.56,> 100,3060,> 100,4430,> 100,6.12,> 100,3.85,39.1,2570,9.26,3460,> 100,3750,> 100,840,> 100,2330,16.6
NC(=O)Nc1ccc2ncnc(Nc3ccc(Cl)cc3)c2c1,11.8,> 100,42800,> 100,17000,66.4,26.7,> 91.9,28.2,> 77.9,6080,36,20300,> 100,24500,> 100,28900,> 100,17000,83.6
c1ccc(Cn2cc3c(c2)-c2oncc2CC3)cc1,3.26,> 66.9,428,> 100,887,10.7,1.28,> 59.4,17.9,> 67.8,1890,8.13,348,–,402,7.5,387,> 100,1120,4.76
O=C(Cc1ccccc1)Nc1nnc(CCSCCc2nnc(NC(=O)Cc3ccccc3)s2)s1,3.96,32.7,> 100000,> 100,1930,79.9,3.86,19.6,13.5,48.9,8410,> 100,> 100000,> 100,14500,> 100,1340,> 100,17900,68.9
Cc1sc2nc(-c3ccccn3)c(/C=N/N=C(N)N)n2c1C,5.15,13.3,4500,13.5,12700,27.7,8.06,16.9,4.53,9.81,5180,13.3,6020,19,13600,36.2,> 51500,> 100,5560,16.1
Cn1c2ccccc2c2cc(-c3ccccc3)c3c(c21)C(=O)C=CC3=O,–,41.3,–,33.4,–,61.7,–,> 76,–,40.2,–,34.5,–,> 48.5,–,45.5,–,> 70.6,–,31.1
OC(COc1ccc(Cl)cc1Cl)CN1CCCC1 (configuration not stated),–,> 100,–,> 100,–,> 100,–,> 100,–,> 100,–,> 100,–,> 100,–,> 100,–,> 100,–,> 100
CCN(CC)c1ccc(/C=C/C(=O)c2cccc(NS(C)(=O)=O)c2)cc1,6.27,> 100,3270,> 100,19300,> 100,27.6,> 100,5.79,> 100,87700,> 100,3190,18.1,4720,> 100,3470,> 100,58000,> 100
NC1=CC(=O)C(=O)c2cccnc21,2.59,8.15,8670,24.3,5160,55.1,2.58,7.15,2.22,4.63,7320,22.6,3160,10.5,2630,7.38,3030,10.6,14200,27.2
O=C1OCC2=C1C(c1cccc(F)c1)c1cc3c(cc1N2CCO)OCCO3 (configuration not stated),1.97,> 50,186,> 50,179,7.16,0.31,> 50,0.305,> 50,41.8,2.58,237,> 50,187,> 50,122,> 50,141,> 50
O=C1C2C(C(=O)[N]1[Hg][c]1ccccc1)C1(Cl)C(Cl)=C(Cl)C2(Cl)C1(Cl)Cl (configuration not stated),1.09,4.15,464,1.8,771,> 100,6.21,19.2,1.32,3.02,203,0.531,365,10.4,2610,12.4,1360,11.4,423,1.59
CN(C)CCCNC(=O)c1cc2c3ccccc3[nH]c2c2ncccc12,21,81.4,6340,33.4,14500,38.3,5.99,36.1,13,27,14500,37.7,4310,56.4,6370,38.6,27600,> 100,13200,39
